Results: PubChem BioAssay (NCI)
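48-hour exposure; five concentrations; linearly interpolated endpoints. Here, GI50 denotes the concentration required for 50% inhibition of growth. At the TGI there is no net growth.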

Key:
Assay in all cases: NCI tumour cell line growth inhibition, 48 h
UACC-257 melanoma = system: UACC-257 melanoma
SW-620 colon = system: SW-620 colon
ACHN renal = system: ACHN renal
T-47D breast = system: T-47D breast
MCF7 breast = system: MCF7 breast
CCRF-CEM leukemia = system: CCRF-CEM leukemia
U251 CNS = system: U251 CNS
SK-MEL-5 melanoma = system: SK-MEL-5 melanoma
KM12 colon = system: KM12 colon
DU-145 prostate = system: DU-145 prostate
HCT-15 colon = system: HCT-15 colon
SN12C renal = system: SN12C renal
UO-31 renal = system: UO-31 renal
MDA-MB-435 = system: MDA-MB-435
TK-10 renal = system: TK-10 renal
OVCAR-5 ovarian = system: OVCAR-5 ovarian
SF-539 CNS = system: SF-539 CNS
NCI-H23 lung = system: NCI-H23 lung
RXF 393 renal = system: RXF 393 renal
MDA-MB-231 breast = system: MDA-MB-231 breast
HL-60(TB) leukemia = system: HL-60(TB) leukemia
SNB-19 CNS = system: SNB-19 CNS
OVCAR-3 ovarian = system: OVCAR-3 ovarian
SF-295 CNS = system: SF-295 CNS
EKVX NSCLC = system: EKVX NSCLC
OVCAR-8 ovarian = system: OVCAR-8 ovarian
MALME-3M melanoma = system: MALME-3M melanoma
COLO 205 colon = system: COLO 205 colon
UACC-62 melanoma = system: UACC-62 melanoma
786-0 renal = system: 786-0 renal
K-562 leukemia = system: K-562 leukemia
IGROV1 ovarian = system: IGROV1 ovarian
SK-MEL-28 melanoma = system: SK-MEL-28 melanoma
SF-268 CNS = system: SF-268 CNS
RPMI-8226 leukemia = system: RPMI-8226 leukemia
NCI-H460 lung = system: NCI-H460 lung
HCC-2998 colon = system: HCC-2998 colon
NCI-H226 lung = system: NCI-H226 lung
MOLT-4 leukemia = system: MOLT-4 leukemia
HCT-116 colon = system: HCT-116 colon
SR leukemia = system: SR leukemia
PC-3 prostate = system: PC-3 prostate
SNB-75 CNS = system: SNB-75 CNS
OVCAR-4 ovarian = system: OVCAR-4 ovarian
M14 melanoma = system: M14 melanoma
NCI/ADR-RES ovarian = system: NCI/ADR-RES ovarian
A498 renal = system: A498 renal
BT-549 breast = system: BT-549 breast
SK-MEL-2 melanoma = system: SK-MEL-2 melanoma
HOP-92 NSCLC = system: HOP-92 NSCLC
HS 578T breast = system: HS 578T breast
HOP-62 NSCLC = system: HOP-62 NSCLC
LOX IMVI melanoma = system: LOX IMVI melanoma
SK-OV-3 ovarian = system: SK-OV-3 ovarian
HT29 colon = system: HT29 colon
A549 NSCLC = system: A549 NSCLC
CAKI-1 renal = system: CAKI-1 renal
NCI-H522 lung = system: NCI-H522 lung

CCC(=O)O[C@@H]([C@H](C)[C@H]1OC(CC)=C(C)C(=O)[C@@H]1C)[C@@H](C)C(=O)CC was tested, and the GI50 (UACC-257 melanoma) was greater than 100 µM, the TGI (UACC-257 melanoma) was greater than 100 µM and the GI50 (SW-620 colon) was greater than 100 µM. It also gave a TGI (SW-620 colon) greater than 100 µM, a GI50 (ACHN renal) greater than 100 µM and a TGI (ACHN renal) greater than 100 µM. It also gave a GI50 (T-47D breast) of 23.6 µM, a TGI (T-47D breast) greater than 100 µM and a GI50 (MCF7 breast) greater than 100 µM. The TGI (MCF7 breast) was greater than 100 µM, the GI50 (CCRF-CEM leukemia) was greater than 100 µM and the TGI (CCRF-CEM leukemia) was greater than 100 µM. For the same compound, the GI50 (U251 CNS) was greater than 100 µM, the TGI (U251 CNS) was greater than 100 µM and the GI50 (SK-MEL-5 melanoma) was 53.6 µM. It also gave a TGI (SK-MEL-5 melanoma) greater than 100 µM, a GI50 (KM12 colon) of 60.1 µM and a TGI (KM12 colon) greater than 100 µM. For the same compound, the GI50 (DU-145 prostate) was greater than 100 µM, the TGI (DU-145 prostate) was greater than 100 µM and the GI50 (HCT-15 colon) was greater than 100 µM. The TGI (HCT-15 colon) was greater than 100 µM, the GI50 (SN12C renal) was greater than 100 µM and the TGI (SN12C renal) was greater than 100 µM. The GI50 (UO-31 renal) was greater than 100 µM, the TGI (UO-31 renal) was greater than 100 µM and the GI50 (MDA-MB-435) was greater than 100 µM. For the same compound, the TGI (MDA-MB-435) was greater than 100 µM, the GI50 (TK-10 renal) was greater than 100 µM and the TGI (TK-10 renal) was greater than 100 µM. For the same compound, the GI50 (OVCAR-5 ovarian) was 32.7 µM, the TGI (OVCAR-5 ovarian) was greater than 100 µM and the GI50 (SF-539 CNS) was greater than 100 µM. For the same compound, the TGI (SF-539 CNS) was greater than 100 µM, the GI50 (NCI-H23 lung) was 37.8 µM and the TGI (NCI-H23 lung) was greater than 100 µM. It also gave a GI50 (RXF 393 renal) greater than 100 µM, a TGI (RXF 393 renal) greater than 100 µM and a GI50 (MDA-MB-231 breast) greater than 100 µM. It also gave a TGI (MDA-MB-231 breast) greater than 100 µM, a GI50 (HL-60(TB) leukemia) of 37.4 µM and a TGI (HL-60(TB) leukemia) greater than 100 µM. For the same compound, the GI50 (SNB-19 CNS) was greater than 100 µM, the TGI (SNB-19 CNS) was greater than 100 µM and the GI50 (OVCAR-3 ovarian) was 0.0316 µM. For the same compound, the TGI (OVCAR-3 ovarian) was 0.751 µM, the GI50 (SF-295 CNS) was greater than 100 µM and the TGI (SF-295 CNS) was greater than 100 µM. The GI50 (EKVX NSCLC) was greater than 100 µM, the TGI (EKVX NSCLC) was greater than 100 µM and the GI50 (OVCAR-8 ovarian) was greater than 100 µM. It also gave a TGI (OVCAR-8 ovarian) greater than 100 µM, a GI50 (MALME-3M melanoma) greater than 100 µM and a TGI (MALME-3M melanoma) greater than 100 µM. It also gave a GI50 (COLO 205 colon) of 68.6 µM, a TGI (COLO 205 colon) greater than 100 µM and a GI50 (UACC-62 melanoma) of 60.8 µM. It also gave a TGI (UACC-62 melanoma) greater than 100 µM, a GI50 (786-0 renal) greater than 100 µM and a TGI (786-0 renal) greater than 100 µM. It also gave a GI50 (K-562 leukemia) of 61.6 µM, a TGI (K-562 leukemia) greater than 100 µM and a GI50 (IGROV1 ovarian) of 19.9 µM. The TGI (IGROV1 ovarian) was greater than 100 µM, the GI50 (SK-MEL-28 melanoma) was greater than 100 µM and the TGI (SK-MEL-28 melanoma) was greater than 100 µM. The GI50 (SF-268 CNS) was greater than 100 µM, the TGI (SF-268 CNS) was greater than 100 µM and the GI50 (RPMI-8226 leukemia) was 66.8 µM. For the same compound, the TGI (RPMI-8226 leukemia) was greater than 100 µM, the GI50 (NCI-H460 lung) was 78.7 µM and the TGI (NCI-H460 lung) was greater than 100 µM. For the same compound, the GI50 (HCC-2998 colon) was 0.183 µM, the TGI (HCC-2998 colon) was 47 µM and the GI50 (NCI-H226 lung) was greater than 100 µM. The TGI (NCI-H226 lung) was greater than 100 µM, the GI50 (MOLT-4 leukemia) was 60 µM and the TGI (MOLT-4 leukemia) was greater than 100 µM. The GI50 (HCT-116 colon) was 55.6 µM, the TGI (HCT-116 colon) was greater than 100 µM and the GI50 (SR leukemia) was 92.4 µM. For the same compound, the TGI (SR leukemia) was greater than 100 µM, the GI50 (PC-3 prostate) was 59.6 µM and the TGI (PC-3 prostate) was greater than 100 µM. It also gave a GI50 (SNB-75 CNS) greater than 100 µM, a TGI (SNB-75 CNS) greater than 100 µM and a GI50 (OVCAR-4 ovarian) of 40.8 µM. It also gave a TGI (OVCAR-4 ovarian) greater than 100 µM, a GI50 (M14 melanoma) greater than 100 µM and a TGI (M14 melanoma) greater than 100 µM. For the same compound, the GI50 (NCI/ADR-RES ovarian) was 31.7 µM, the TGI (NCI/ADR-RES ovarian) was greater than 100 µM and the GI50 (A498 renal) was 88.9 µM. It also gave a TGI (A498 renal) greater than 100 µM, a GI50 (BT-549 breast) of 90.2 µM and a TGI (BT-549 breast) greater than 100 µM. The GI50 (SK-MEL-2 melanoma) was greater than 100 µM, the TGI (SK-MEL-2 melanoma) was greater than 100 µM and the GI50 (HOP-92 NSCLC) was greater than 100 µM. For the same compound, the TGI (HOP-92 NSCLC) was greater than 100 µM, the GI50 (HS 578T breast) was 96.8 µM and the TGI (HS 578T breast) was greater than 100 µM. It also gave a GI50 (HOP-62 NSCLC) greater than 100 µM, a TGI (HOP-62 NSCLC) greater than 100 µM and a GI50 (LOX IMVI melanoma) greater than 100 µM. It also gave a TGI (LOX IMVI melanoma) greater than 100 µM, a GI50 (SK-OV-3 ovarian) greater than 100 µM and a TGI (SK-OV-3 ovarian) greater than 100 µM. For the same compound, the GI50 (HT29 colon) was 53.6 µM, the TGI (HT29 colon) was greater than 100 µM and the GI50 (A549 NSCLC) was greater than 100 µM. It also gave a TGI (A549 NSCLC) greater than 100 µM.

Work on NC(=O)c1ncn2c1CNC(=O)C2 yielded a TGI (UACC-257 melanoma) greater than 100 µM, a TGI (SW-620 colon) greater than 100 µM and a TGI (ACHN renal) greater than 100 µM. It also gave a TGI (T-47D breast) greater than 100 µM, a TGI (MCF7 breast) greater than 100 µM and a TGI (CCRF-CEM leukemia) greater than 100 µM. It also gave a TGI (U251 CNS) greater than 100 µM, a TGI (SK-MEL-5 melanoma) greater than 100 µM and a TGI (KM12 colon) greater than 100 µM. The TGI (DU-145 prostate) was greater than 100 µM, the TGI (HCT-15 colon) was greater than 100 µM and the TGI (SN12C renal) was greater than 100 µM. For the same compound, the TGI (UO-31 renal) was greater than 100 µM, the TGI (CAKI-1 renal) was greater than 100 µM and the TGI (MDA-MB-435) was greater than 100 µM. It also gave a TGI (TK-10 renal) greater than 100 µM, a TGI (OVCAR-5 ovarian) greater than 100 µM and a TGI (SF-539 CNS) greater than 100 µM. The TGI (NCI-H23 lung) was greater than 100 µM, the TGI (RXF 393 renal) was greater than 100 µM and the TGI (MDA-MB-231 breast) was greater than 100 µM. The TGI (HL-60(TB) leukemia) was greater than 100 µM, the TGI (SNB-19 CNS) was greater than 100 µM and the TGI (OVCAR-3 ovarian) was greater than 100 µM. It also gave a TGI (SF-295 CNS) greater than 100 µM, a TGI (EKVX NSCLC) greater than 100 µM and a TGI (OVCAR-8 ovarian) greater than 100 µM. For the same compound, the TGI (MALME-3M melanoma) was greater than 100 µM, the TGI (COLO 205 colon) was greater than 100 µM and the TGI (UACC-62 melanoma) was greater than 100 µM. The TGI (K-562 leukemia) was greater than 100 µM, the TGI (IGROV1 ovarian) was greater than 100 µM and the TGI (SK-MEL-28 melanoma) was greater than 100 µM. The TGI (SF-268 CNS) was greater than 100 µM, the TGI (NCI-H460 lung) was greater than 100 µM and the TGI (HCC-2998 colon) was greater than 100 µM. The TGI (NCI-H226 lung) was greater than 100 µM, the TGI (MOLT-4 leukemia) was greater than 100 µM and the TGI (SR leukemia) was greater than 100 µM. It also gave a TGI (PC-3 prostate) greater than 100 µM, a TGI (SNB-75 CNS) greater than 100 µM and a TGI (OVCAR-4 ovarian) greater than 100 µM. It also gave a TGI (M14 melanoma) greater than 100 µM, a TGI (NCI/ADR-RES ovarian) greater than 100 µM and a TGI (NCI-H522 lung) greater than 100 µM. It also gave a TGI (A498 renal) greater than 100 µM, a TGI (BT-549 breast) greater than 100 µM and a TGI (SK-MEL-2 melanoma) greater than 100 µM. It also gave a TGI (HOP-92 NSCLC) greater than 100 µM, a TGI (HS 578T breast) greater than 100 µM and a TGI (HOP-62 NSCLC) greater than 100 µM. It also gave a TGI (SK-OV-3 ovarian) greater than 100 µM, a TGI (HT29 colon) greater than 100 µM and a TGI (A549 NSCLC) greater than 100 µM.
